Data reported in patent US11312727B1, “Macrocyclic flu endonuclease inhibitors” (Janssen BioPharma, Inc., priority 2018, dated 2022).
Like-named read-outs stand apart in the source and are kept apart here.

What was measured:
[1] = system: Human lung carcinoma A549 cells; settings: uninfected A549 cells, CellTiter-Glo
[2] = system: Influenza strain A549 A/WSN/33 (H1N1); assay: microbe, parasite or virus in culture; type: cell-based; settings: A549 cells, influenza A/WSN/33 (H1N1), 20 hours incubation, read-out: A549_A(H1N1) EC50
[3] = in vitro; settings: human, CC50, uninfected A549 cells, CellTiter-Glo
[4] = molecular target: EN PA (full length recombinant PA endonuclease) (Influenza A virus (strain A/Wilson-Smith/1933 H1N1) (Influenza A virus (strain A/WS/1933 H1N1)), UniProt P15659); assay: biochemical; settings: full length EN PA 1 to 10 nM, 50 nM FRET probe; mean of a minimum of two independent experiments; read-out: FRET_ _IC50

| SMILES | CC50 [1] [nM] | EC50 [2] [nM] | other results |
| --- | --- | --- | --- |
| CCC1C=CCOc2ccccc2C(c2ccccc2)N2CN1C(=O)c1c(OCc3ccccc3)c(=O)ccn12 (stereo not shown) | – | – | ring closure, yield of all isomers (from C=CCOc1ccccc1C(c1ccccc1)N1CN(C(C=C)CC)C(=O)c2c(OCc3ccccc3)c(=O)ccn21, rcm bond, Hoveyda-Grubbs catalyst 2nd generation, DCE, […], 80.0 °C, 2.0 h): 62.5% |
| O=C1CCN2CN(C(c3ccccc3)c3ccccc3CN1)n1ccc(=O)c(OCc3ccccc3)c1C2=O (stereo not shown) | – | – | ring closure, yield of all isomers (from NCc1ccccc1C(c1ccccc1)N1CN(CCC(=O)O)C(=O)c2c(OCc3ccccc3)c(=O)ccn21, amide bond, HATU, DMF, […], 80.0 °C): 51.7% |
| O=C1c2c(OCc3ccccc3)c(=O)ccn2N2CN1C1(C=CCOc3c(ccc(F)c3F)C2c2ccccc2)CCC1 (stereo not shown) | – | – | ring closure, yield of all isomers (from C=CCOc1c(C(c2ccccc2)N2CN(C3(C=C)CCC3)C(=O)c3c(OCc4ccccc4)c(=O)ccn32)ccc(F)c1F, rcm bond, Hoveyda-Grubbs II, dichloroethane, 12.05 mM, 100.0 °C, 6.0 h): 40.7% |
| O=C1c2c(OCc3ccccc3)c(=O)ccn2N2CN1CC1CC1COc1ccccc1C2c1ccccc1 (stereo not shown) | – | – | ring closure, yield of all isomers (from O=C1c2c(OCc3ccccc3)c(=O)ccn2N(C(c2ccccc2)c2ccccc2O)CN1CC1CC1CBr, ether bond, K2CO3, CH3CN, 44.8 mM, […], 0.5 h): 55.8% |
| O=C1c2c(OCc3ccccc3)c(=O)ccn2N2CN1CC=CCOc1c(F)cccc1C2c1cccc(F)c1 (stereo not shown) | – | – | ring closure, yield of all isomers (from C=CCOc1c(F)cccc1C(c1cccc(F)c1)N1CN(CC=C)C(=O)c2c(OCc3ccccc3)c(=O)ccn21, rcm bond, Hoveyda-Grubbs second generation catalyst, DCE, 19.6 mM, 80.0 °C, 2.0 h): 13.6% |
| O=C1c2c(OCc3ccccc3)c(=O)ccn2N2CN1CC=CCOc1cccc3c1C2c1ccccc1SC3 (stereo not shown) | – | – | ring closure, yield of all isomers (from C=CCOc1cccc2c1C(N1CN(CC=C)C(=O)c3c(OCc4ccccc4)c(=O)ccn31)c1ccccc1SC2, rcm bond, Hoveyda-Grubbs catalyst 2nd generation, DCE, 16.04 mM, 80.0 °C, […]): 15% |
| O=C1c2c(OCc3ccccc3)c(=O)ccn2N2CN1CC=CCOc1ccccc1C2c1ccccc1 (stereo not shown) | – | – | ring closure, yield of all isomers (from C=CCOc1ccccc1C(c1ccccc1)N1CN(CC=C)C(=O)c2c(OCc3ccccc3)c(=O)ccn21, rcm bond, Hoveyda-Grubbs 2nd generation, DCE, […], 80.0 °C, 2.0 h): 21.4% |
| O=C1c2c(OCc3ccccc3)c(=O)ccn2N2CN1CC=CCOc1ccccc1C2c1ccccn1 (stereo not shown) | – | – | ring closure, yield of all isomers (from C=CCOc1ccccc1C(c1ccccn1)N1CN(CC=C)C(=O)c2c(OCc3ccccc3)c(=O)ccn21, rcm bond, Hoveyda-Grubbs catalyst 2nd generation, DCE, 14.6 mM, 80.0 °C, 2.0 h): 9.7% |
| O=C1c2c(O)c(=O)ccn2N2CN1C/C=C\CCc1ccccc1C2c1ccncc1 (single isomer, unassigned) [Compound 52A, (16*R,*Z)-4-hydroxy-16-(pyridin-4-yl)-7,10,11,16-tetrahydro-6,17-methanobenzo[k]pyrido[1,2-b][1,2,5]triazacyclotridecine-3,5-dione] | > 2000 | > 1000 | – |
| O=C1c2c(O)c(=O)ccn2N2CN1C/C=C\CCc1ccccc1C2c1ccncc1 (single isomer, unassigned) [Compound 52B, (16*S,*Z)-4-hydroxy-16-(pyridin-4-yl)-7,10,11,16-tetrahydro-6,17-methanobenzo[k]pyrido[1,2-b][1,2,5]triazacyclotridecine-3,5-dione] | > 2000 | 84 | – |
| O=C1c2c(O)c(=O)ccn2N2CN1CCCCCOc1cccc3c1[C@@H]2c1ccccc1SC3 (single isomer, unassigned) [Compound 69A, (23b*R)-6-hydroxy-10,11,12,13,18,23b-hexahydro-9H-1,8-methano[1]benzothiepino[5,4,3-lm]pyrido[2,1-i][1,7,10,11]benzoxatriazacyclotetradecine-5,7-dione] | > 2000 | > 1000 | – |
| O=C1c2c(O)c(=O)ccn2N2CN1CCCCCOc1cccc3c1[C@H]2c1ccccc1SC3 (single isomer, unassigned) [Compound 69B, (23b*S)-6-hydroxy-10,11,12,13,18,23b-hexahydro-9H-1,8-methano[1]benzothiepino[5,4,3-lm]pyrido[2,1-i][1,7,10,11]benzoxatriazacyclotetradecine-5,7-dione] | > 2000 | 27 | – |
| O=C1c2c(O)c(=O)ccn2N2CN1C/C=C/CCc1c(F)cccc1C2c1cccc(F)n1 (single isomer, unassigned) [Compound 76A, (16*R,E)-12-fluoro-16-(6-fluoropyridin-2-yl)-4-hydroxy-7,10,11,16-tetrahydro-6,17-methanobenzo[k]pyrido[1,2-b][1,2,5]triazacyclotridecine-3,5-dione] | 43900 | 3590 | – |
| O=C1c2c(O)c(=O)ccn2N2CN1C/C=C/CCc1c(F)cccc1C2c1cccc(F)n1 (single isomer, unassigned) [Compound 76B, (16*S,E)-12-fluoro-16-(6-fluoropyridin-2-yl)-4-hydroxy-7,10,11,16-tetrahydro-6,17-methanobenzo[k]pyrido[1,2-b][1,2,5]triazacyclotridecine-3,5-dione] | > 200 | 6 | – |
| O=C1c2c(O)c(=O)ccn2N2CN1C/C=C/CCc1ccccc1C2c1cccc(F)n1 (single isomer, unassigned) [Compound 78A, (16*R,E)-16-(6-fluoropyridin-2-yl)-4-hydroxy-7,10,11,16-tetrahydro-6,17-methanobenzo[k]pyrido[1,2-b][1,2,5]triazacyclotridecine-3,5-dione] | > 1000 | 19 | – |
| CC1CCCCc2ccccc2C(c2ccccc2)N2CN1C(=O)c1c(O)c(=O)ccn12 (stereo not shown) [Compound 13, 4-hydroxy-7-methyl-15-phenyl-8,9,10,15-tetrahydro-7H-6,16-methanobenzo[j]pyrido[1,2-b][1,2,5]triazacyclododecine-3,5-dione] | – | – | CC50 [3]: > 2000 nM; IC50 [4]: 46 nM; EC50 ([2]; Influenza A virus, A549, 20 h): 19 nM |
